Laboratory results as given in patent publication US20090312288A1 (TAKEDA PHARMACEUTICAL COMPANY LIMITED, priority 2008, published 2009).

These molecules were tested against Aurora B/INCENP (Homo sapiens, UniProt Q96GD4) (assay: Determination of inhibition of AIK: Aurora B/INCENP direct fluorescence polarization (IMAP) assay). Conditions: 10 uM ATP, 0.8 nM Aurora B/INCENP; values given as bins; read-out: IC50 of Exemplified Compounds Against AIK B.
Type: biochemical
Protocol: Detection of the reaction product is performed by addition of Progressive IMAP binding reagent (Molecular Devices). Reaction product may be determined quantitatively by FP using an Analyst HT plate reader (Molecular Devices) with an excitation wavelength at 485 nm and emission at 530 nm and using a Fluorescein 505 dichroic mirror.
The assay reaction may be initiated as follows: 2 ul of (3×) 300 nM Fl-Peptide/30 uM ATP was added to each well of the plate, followed by the addition of 2 ul of (3×) inhibitor (2 fold serial dilutions for 11 data points for each inhibitor) containing 15% DMSO. Two microliters of (3×) 2.4 nM AuroraB/INCENP solution may be added to initiate the reaction (final enzyme concentration was 0.8 nM for Aurora B/INCENP). The reaction mixture may then be incubated at room temperature for 45 min, and quenched and developed by addition of 20 ul of 1 to 400 diluted Progressive IMAP binding reagent in 1× proprietary Progressive IMAP binding buffer A. Fluorescence polarization readings of the resulting reaction mixtures may be measured after a 60-minute incubation at room temperature.
IC50 values may be calculated by non-linear curve fitting of the compound concentrations and fluorescent polarization values to the standard IC50 equation.

Aurora B/INCENP, sequence (Q96GD4 whole entry): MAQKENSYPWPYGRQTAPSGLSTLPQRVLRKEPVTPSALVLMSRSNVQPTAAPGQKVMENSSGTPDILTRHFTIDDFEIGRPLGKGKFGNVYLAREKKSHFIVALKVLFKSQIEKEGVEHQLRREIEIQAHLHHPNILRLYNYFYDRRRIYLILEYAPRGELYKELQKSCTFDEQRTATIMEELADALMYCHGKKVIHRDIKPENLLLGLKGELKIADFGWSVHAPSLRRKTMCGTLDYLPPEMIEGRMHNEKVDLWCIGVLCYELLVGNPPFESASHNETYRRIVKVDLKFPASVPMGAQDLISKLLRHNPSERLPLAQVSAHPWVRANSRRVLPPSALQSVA
Aurora B/INCENP, sequence (Q9NQS7 whole entry partner): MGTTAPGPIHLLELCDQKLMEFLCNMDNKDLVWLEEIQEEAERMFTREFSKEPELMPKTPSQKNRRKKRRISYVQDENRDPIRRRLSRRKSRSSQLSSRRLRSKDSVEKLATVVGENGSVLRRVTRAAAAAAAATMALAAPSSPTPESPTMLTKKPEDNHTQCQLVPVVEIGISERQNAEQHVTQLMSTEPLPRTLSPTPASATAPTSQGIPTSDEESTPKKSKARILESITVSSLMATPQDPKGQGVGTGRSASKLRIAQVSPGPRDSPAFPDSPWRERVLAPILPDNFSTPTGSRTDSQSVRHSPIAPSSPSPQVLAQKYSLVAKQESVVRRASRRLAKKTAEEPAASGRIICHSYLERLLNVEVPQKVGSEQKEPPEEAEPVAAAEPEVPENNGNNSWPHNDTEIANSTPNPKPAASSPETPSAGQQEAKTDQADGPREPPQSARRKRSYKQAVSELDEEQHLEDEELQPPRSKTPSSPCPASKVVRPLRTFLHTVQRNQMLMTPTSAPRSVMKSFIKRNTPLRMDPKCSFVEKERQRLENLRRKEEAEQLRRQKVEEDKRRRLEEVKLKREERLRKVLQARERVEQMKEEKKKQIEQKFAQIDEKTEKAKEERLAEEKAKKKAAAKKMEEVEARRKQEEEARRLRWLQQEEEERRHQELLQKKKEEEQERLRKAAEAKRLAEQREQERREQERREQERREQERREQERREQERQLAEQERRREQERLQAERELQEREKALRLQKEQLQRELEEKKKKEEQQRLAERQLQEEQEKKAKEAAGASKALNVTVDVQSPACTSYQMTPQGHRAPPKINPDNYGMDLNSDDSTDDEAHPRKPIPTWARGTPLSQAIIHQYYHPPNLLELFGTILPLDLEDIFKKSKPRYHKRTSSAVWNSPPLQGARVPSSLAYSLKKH

Row | Compound | IC50 [nM]
1 | c1ccc(-c2cccc3[nH]c4ncccc4c23)cc1 [Compound 5, 5-phenyl-9H-pyrido[2,3-b]indole] | > 13
2 | CS(=O)(=O)c1cccc(-c2cccc3[nH]c4ncccc4c23)c1 [Compound 8, 5-(3-(methylsulfonyl)phenyl)-9H-pyrido[2,3-b]indole] | > 13
3 | CCS(=O)(=O)c1cccc(-c2cccc3[nH]c4ncccc4c23)c1 [Compound 9, 5-(3-(ethylsulfonyl)phenyl)-9H-pyrido[2,3-b]indole] | > 13
4 | Cc1cccc(-c2cccc3[nH]c4ncccc4c23)c1 [Compound 11, 5-m-tolyl-9H-pyrido[2,3-b]indole] | > 13
5 | O=S(=O)(NC1CC1)c1cccc(-c2cccc3[nH]c4ncccc4c23)c1 [Compound 12, N-cyclopropyl-3-(9H-pyrido[2,3-b]indol-5-yl)benzenesulfonamide] | > 13
6 | CNS(=O)(=O)c1cc(-c2ccc(C)c3[nH]c4ncc(C)cc4c23)ccc1OC [Compound 14, 5-(3,8-dimethyl-9H-pyrido[2,3-b]indol-5-yl)-2-methoxy-N-methylbenzenesulfonamide] | < 4
7 | CNS(=O)(=O)c1cccc(-c2ccc(C)c3[nH]c4ncc(C)cc4c23)c1 [Compound 15, 3-(3,8-dimethyl-9H-pyrido[2,3-b]indol-5-yl)-N-methylbenzenesulfonamide] | < 4
8 | Cc1cnc2[nH]c3c(C)ccc(-c4cccc(S(=O)(=O)N(C)C)c4)c3c2c1 [Compound 16, 3-(3,8-dimethyl-9H-pyrido[2,3-b]indol-5-yl)-N,N-dimethylbenzenesulfonamide] | 5.6 to 8.5
9 | CCS(=O)(=O)c1cccc(-c2ccc(C)c3[nH]c4ncc(C)cc4c23)c1 [Compound 18, 5-(3-(ethylsulfonyl)phenyl)-3,8-dimethyl-9H-pyrido[2,3-b]indole] | 5.6 to 8.5
10 | Cc1cnc2[nH]c3c(C)ccc(-c4cccc(C(=O)NC5CC5)c4)c3c2c1 [Compound 20, N-cyclopropyl-3-(3,8-dimethyl-9H-pyrido[2,3-b]indol-5-yl)benzamide] | 4 to 5.5
11 | CC(=O)Nc1ccc(Sc2cccc3[nH]c4ncccc4c23)cc1 [Compound 21, N-(4-(9H-pyrido[2,3-b]indol-5-ylthio)phenyl)acetamide] | > 13
12 | c1ccc(Sc2cccc3[nH]c4ncccc4c23)cc1 [Compound 23, 5-(phenylthio)-9H-pyrido[2,3-b]indole] | > 13
13 | Cc1cnc2[nH]c3c(C)ccc(SCc4ccccc4)c3c2c1 [Compound 25, 5-(benzylthio)-3,8-dimethyl-9H-pyrido[2,3-b]indole] | > 13
14 | CCS(=O)(=O)c1cccc(-c2c[nH]c(=O)c3[nH]c4ncc(C)cc4c23)c1 [Compound 32, 5-(3-Ethanesulfonyl-phenyl)-3-methyl-7,9-dihydro-dipyrido[2,3-b;4′,3′-d]pyrrol-8-one] | 5.6 to 8.5
15 | CCS(=O)(=O)c1cccc(-c2cnc(Cl)c3[nH]c4ncc(C)cc4c23)c1 [Compound 33, 8-Chloro-5-(3-ethanesulfonyl-phenyl)-3-methyl-9H-dipyrido[2,3-b;4′,3′-d]pyrrole] | 4 to 5.5
16 | CCS(=O)(=O)c1cccc(-c2cnc(NCCCN(C)C)c3[nH]c4ncc(C)cc4c23)c1 [Compound 41, N′-[5-(3-Ethanesulfonyl-phenyl)-3-methyl-9H-dipyrido[2,3-b;4′,3′-d]pyrrol-8-yl]-N,N-dimethyl-propane-1,3-diamine] | 5.6 to 8.5
17 | CCS(=O)(=O)c1cccc(-c2cnc(NCCN(C)C)c3[nH]c4ncc(C)cc4c23)c1 [Compound 42, N′-[5-(3-Ethanesulfonyl-phenyl)-3-methyl-9H-dipyrido[2,3-b;4′,3′-d]pyrrol-8-yl]-N,N-dimethyl-ethane-1,2-diamine] | 8.6 to 13
18 | CCS(=O)(=O)c1cccc(-c2cnc(NCCCN3CCOCC3)c3[nH]c4ncc(C)cc4c23)c1 [Compound 43, [5-(3-Ethanesulfonyl-phenyl)-3-methyl-9H-dipyrido[2,3-b;4′,3′-d]pyrrol-8-yl]-(3-morpholin-4-yl-propyl)-amine] | 5.6 to 8.5
19 | CCS(=O)(=O)c1cccc(-c2cnc(NC3CCN(C)CC3)c3[nH]c4ncc(C)cc4c23)c1 [Compound 44, [5-(3-Ethanesulfonyl-phenyl)-3-methyl-9H-dipyrido[2,3-b;4′,3′-d]pyrrol-8-yl]-(1-methyl-piperidin-4-yl)-amine] | 8.6 to 13

Row | Compound | IC50 [nM]
20 | CCS(=O)(=O)c1cccc(-c2cnc(NCC3CCN(C)CC3)c3[nH]c4ncc(C)cc4c23)c1 [Compound 46, [5-(3-Ethanesulfonyl-phenyl)-3-methyl-9H-dipyrido[2,3-b;4′,3′-d]pyrrol-8-yl]-(1-methyl-piperidin-4-ylmethyl)-amine] | 8.6 to 13
21 | CCS(=O)(=O)c1cccc(-c2cnc(C)c3[nH]c4ncc(C)cc4c23)c1 [Compound 47, 5-(3-Ethanesulfonyl-phenyl)-3,8-dimethyl-9H-dipyrido[2,3-b;4′,3′-d]pyrrole] | 5.6 to 8.5
22 | CCS(=O)(=O)c1cccc(-c2cnc(C#N)c3[nH]c4ncc(C)cc4c23)c1 [Compound 49, 5-(3-Ethanesulfonyl-phenyl)-3-methyl-9H-dipyrido[2,3-b;4′,3′-d]pyrrole-8-carbonitrile] | 8.6 to 13
23 | CCS(=O)(=O)c1cccc(-c2cnc(C(N)=O)c3[nH]c4ncc(C)cc4c23)c1 [Compound 50, 5-(3-Ethanesulfonyl-phenyl)-3-methyl-9H-dipyrido[2,3-b;4′,3′-d]pyrrole-8-carboxylic acid amide] | 5.6 to 8.5
24 | CCOc1ncc(-c2cccc(S(=O)(=O)CC)c2)c2c1[nH]c1ncc(C)cc12 [Compound 51, 5-(3-Ethanesulfonyl-phenyl)-8-ethoxy-3-methyl-9H-dipyrido[2,3-b;4′,3′-d]pyrrole] | 5.6 to 8.5
25 | CCS(=O)(=O)c1cccc(-c2cnc(OCCCN(C)C)c3[nH]c4ncc(C)cc4c23)c1 [Compound 52, {3-[5-(3-Ethanesulfonyl-phenyl)-3-methyl-9H-dipyrido[2,3-b;4′,3′-d]pyrrol-8-yloxy]-propyl}-dimethyl-amine] | 8.6 to 13
26 | CCS(=O)(=O)c1cccc(-c2cnc(OCCO)c3[nH]c4ncc(C)cc4c23)c1 [Compound 53, 2-[5-(3-Ethanesulfonyl-phenyl)-3-methyl-9H-dipyrido[2,3-b;4′,3′-d]pyrrol-8-yloxy]-ethanol] | 4 to 5.5
27 | CCS(=O)(=O)c1cccc(-c2cnc(OCC3CCN(C)CC3)c3[nH]c4ncc(C)cc4c23)c1 [Compound 54, 5-(3-Ethanesulfonyl-phenyl)-3-methyl-8-(1-methyl-piperidin-4-ylmethoxy)-9H-dipyrido[2,3-b;4′,3′-d]pyrrole] | 8.6 to 13
28 | CCS(=O)(=O)c1cccc(-c2cnc(OCCCO)c3[nH]c4ncc(C)cc4c23)c1 [Compound 55, 3-[5-(3-Ethanesulfonyl-phenyl)-3-methyl-9H-dipyrido[2,3-b;4′,3′-d]pyrrol-8-yloxy]-propan-1-ol] | < 4
29 | CCS(=O)(=O)c1cccc(-c2cnc(OC[C@H](O)CO)c3[nH]c4ncc(C)cc4c23)c1 [Compound 56] | < 4
30 | CCS(=O)(=O)c1cccc(-c2cnc(OC[C@@H](O)CO)c3[nH]c4ncc(C)cc4c23)c1 [Compound 57] | 4 to 5.5
31 | CCS(=O)(=O)c1cccc(-c2cnc(OCC(C)(C)O)c3[nH]c4ncc(C)cc4c23)c1 [Compound 58, 1-[5-(3-Ethanesulfonyl-phenyl)-3-methyl-9H-dipyrido[2,3-b;4′,3′-d]pyrrol-8-yloxy]-2-methyl-propan-2-ol] | 8.6 to 13
32 | CCS(=O)(=O)c1cccc(-c2cnc(Oc3ccccc3)c3[nH]c4ncc(C)cc4c23)c1 [Compound 59, 5-(3-Ethanesulfonyl-phenyl)-3-methyl-8-phenoxy-9H-dipyrido[2,3-b;4′,3′-d]pyrrole] | 5.6 to 8.5
33 | CCS(=O)(=O)c1cccc(-c2cnc(OCc3cncs3)c3[nH]c4ncc(C)cc4c23)c1 [Compound 60, 5-(3-Ethanesulfonyl-phenyl)-3-methyl-8-(thiazol-5-ylmethoxy)-9H-dipyrido[2,3-b;4′,3′-d]pyrrole] | 4 to 5.5
34 | CCN1CCC(COc2ncc(-c3cccc(S(=O)(=O)CC)c3)c3c2[nH]c2ncc(C)cc23)CC1 [Compound 61, 5-(3-Ethanesulfonyl-phenyl)-8-(1-ethyl-piperidin-4-ylmethoxy)-3-methyl-9H-dipyrido[2,3-b;4′,3′-d]pyrrole] | 5.6 to 8.5
35 | CCS(=O)(=O)c1cccc(-c2cnc(OC[C@H](C)O)c3[nH]c4ncc(C)cc4c23)c1 [Compound 62, (S)-1-[5-(3-Ethanesulfonyl-phenyl)-3-methyl-9H-dipyrido[2,3-b;4′,3′-d]pyrrol-8-yloxy]-propan-2-ol] | 4 to 5.5
36 | CCS(=O)(=O)c1cccc(-c2cnc(OC[C@@H](C)O)c3[nH]c4ncc(C)cc4c23)c1 [Compound 63, (R)-1-[5-(3-Ethanesulfonyl-phenyl)-3-methyl-9H-dipyrido[2,3-b;4′,3′-d]pyrrol-8-yloxy]-propan-2-ol] | 4 to 5.5
37 | CCS(=O)(=O)c1cccc(-c2cnc(OCCOC(=O)[C@@H](N)C(C)C)c3[nH]c4ncc(C)cc4c23)c1 [Compound 64, L-Valine-2-[5-(3-ethanesulfonyl-phenyl)-3-methyl-9H-dipyrido[2,3-b;4′,3′-d]pyrrol-8-yloxy]-ethyl ester] | 5.6 to 8.5
38 | CCS(=O)(=O)c1cccc(-c2cnc(OC[C@@H](C)OC(=O)[C@H](C)N)c3[nH]c4ncc(C)cc4c23)c1 [Compound 65, L-Alanine-(R)-2-[5-(3-ethanesulfonyl-phenyl)-3-methyl-9H-dipyrido[2,3-b;4′,3′-d]pyrrol-8-yloxy]-1-methyl-ethyl ester] | 8.6 to 13
